Assay results: patent US8486984B2, “Aminomethyl substituted bicyclic aromatic compounds suitable for treating disorders that respond to modulation of the dopamine D3 receptor” (Abbott GmbH & Co., KG, priority 2004, dated 2013)
Structures can show the parent of a compound that is named as a salt.

Columns and labels:
[1] = target: T1, human dopamine D3 receptors (Homo sapiens, UniProt P35462); test: Dopamine D3 receptor binding, [125I]-iodosulpride displacement; details: for Ki: membranes from HEK-293 cells stably expressing receptor, 0.1 nM [125I]-iodosulpride, 25° C., 60 minutes; for Ki(D2)*/Ki(D3)*: selectivity, ratio of receptor binding constants D2/D3
T1 construct: expressed in transfected cells; membranes)
Experimental: (§1) The substance to be tested was either dissolved in methanol/Chremophor® (BASF-AG) or in dimethyl sulfoxide and then diluted with water to the desired concentration.
(§2) Each assay mixture was run in triplicate.
The incubation buffer contained 50 mM tris, 120 mM NaCl, 5 mM KCl, 2 mM CaCl2, 2 mM MgCl2 and 0.1% bovine serum albumin, 10 μM quinolone and 0.1% ascorbic acid (prepared fresh daily). The buffer was adjusted to pH 7.4 with HCl.
(§3) After having been incubated at 25° C. for 60 minutes, the assay mixtures were filtered through a Whatman GF/B glass fiber filter under vacuum using a cell collecting device. The filters were transferred to scintillation viols using a filter transfer system. After 4 ml of Ultima Gold® (Packard) have been added, the samples were shaken for one hour and the radioactivity was then counted in a Beta-Counter (Packard, Tricarb 2000 or 2200CA). The cpm values were converted into dpm using a standard quench series and the program belonging to the instrument.
(§4) The inhibition curves were analyzed by means of iterative nonlinear regression analysis using the Statistical Analysis System (SAS) which is similar to the “LIGAND” program described by Munson and Rodbard.

[2] = target: T2, human dopamine D2L receptors (long isoform) (Homo sapiens, UniProt P14416); test: Dopamine D2L receptor binding, [125I] iodospiperone displacement; details: membranes from HEK-293 cells stably expressing receptor; 0.01 nM [125I] iodospiperone; 25° C., 60 minutes; read-out: Ki(D2)*
T2 construct: expressed in transfected cells; membranes)
Experimental: as §1, §2
The incubation buffer contained 50 mM tris, 120 mM NaCl, 5 mM KCl, 2 mM CaCl2, 2 mM MgCl2 and 0.1% bovine serum albumin. The buffer was adjusted to pH 7.4 with HCl.
as §3, §4

T1 sequence (P35462 whole entry): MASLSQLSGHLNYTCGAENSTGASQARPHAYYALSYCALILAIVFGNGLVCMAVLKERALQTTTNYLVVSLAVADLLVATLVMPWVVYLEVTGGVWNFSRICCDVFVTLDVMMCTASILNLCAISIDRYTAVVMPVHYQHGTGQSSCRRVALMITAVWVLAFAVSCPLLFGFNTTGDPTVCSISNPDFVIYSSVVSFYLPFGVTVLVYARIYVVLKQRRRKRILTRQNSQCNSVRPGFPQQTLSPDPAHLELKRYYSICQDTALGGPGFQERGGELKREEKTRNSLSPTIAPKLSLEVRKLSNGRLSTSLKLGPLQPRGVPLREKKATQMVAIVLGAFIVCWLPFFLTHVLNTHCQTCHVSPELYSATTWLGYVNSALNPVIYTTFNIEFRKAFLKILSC
T2 sequence (P14416 whole entry, canonical isoform): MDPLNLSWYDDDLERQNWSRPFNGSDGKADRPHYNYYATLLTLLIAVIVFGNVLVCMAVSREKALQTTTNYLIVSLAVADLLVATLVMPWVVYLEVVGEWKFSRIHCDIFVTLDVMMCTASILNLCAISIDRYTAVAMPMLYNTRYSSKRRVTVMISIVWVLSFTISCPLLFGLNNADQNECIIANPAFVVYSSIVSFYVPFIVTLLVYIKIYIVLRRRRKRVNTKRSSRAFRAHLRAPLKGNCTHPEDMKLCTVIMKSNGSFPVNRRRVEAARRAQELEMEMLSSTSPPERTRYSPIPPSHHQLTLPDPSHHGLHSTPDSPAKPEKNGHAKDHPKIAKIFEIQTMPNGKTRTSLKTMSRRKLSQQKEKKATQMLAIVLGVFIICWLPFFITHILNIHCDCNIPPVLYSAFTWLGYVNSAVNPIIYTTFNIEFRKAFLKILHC

SMILES: C=CCNCC1Cc2cccc(NS(=O)(=O)c3ccc(C(C)C)cc3)c2C1 (stereo not shown) [Example 9, 4-Isopropyl-N-(2-allylaminomethyl-indan-4-yl)-benzenesulfonamide]
- Ki [1]: 4.3 nM
- Ki(D2)*/Ki(D3)* [1]: 54
- Ki [2]: 232 nM

SMILES: CCCNCC1CCCc2cc(NS(=O)(=O)c3ccc(C(C)C)cc3)ccc21 (stereo not shown) [Example 5, 4-Isopropyl-N-(5-propylaminomethyl-5,6,7,8-tetrahydro-naphthalen-2-yl)-benzenesulfonamide×HCl]
- Ki [1]: 1.72 nM
- Ki(D2)*/Ki(D3)* [1]: 69
- Ki [2]: 119 nM

SMILES: CCCN1CCC2c3ccc(NS(=O)(=O)c4ccc(C(C)C)cc4)cc3NC2C1 (stereo not drawn) [Example 12, 4-Isopropyl-N-(2-propyl-2,3,4,4a,9,9a-hexahydro-1H-beta-carbolin-7-yl)-benzenesulfonamide]
- Ki [1]: 5.3 nM
- Ki(D2)*/Ki(D3)* [1]: 26
- Ki [2]: 137 nM

SMILES: CCCNCc1cc2cc(NS(=O)(=O)c3ccc(C(C)C)cc3)ccc2[nH]1 [Example 1, 4-Isopropyl-N-(2-propylaminomethyl-1H-indol-5-yl)-benzenesulfonamide]
- Ki [1]: 5.8 nM
- Ki(D2)*/Ki(D3)* [1]: 39
- Ki [2]: 225 nM

SMILES: CCCN1CC2CCc3cc(NS(=O)(=O)c4ccc(C(C)C(F)(F)F)cc4)ccc3C2C1.Cl (stereo not shown) [Example 15, N-(2-Propyl-2,3,3a,4,5,9b-hexahydro-1H-benzo[e]isoindol-7-yl)-4-(2,2,2-trifluoro-1-methylethyl)-benzenesulfonamide, hydrochloride]
- Ki [1]: 1.8 nM
- Ki(D2)*/Ki(D3)* [1]: 36

SMILES: CCCNCC1CCc2cc(NS(=O)(=O)c3ccc(C(C)C)cc3)ccc21 (stereo not shown) [Example 10, 4-Isopropyl-N-(1-propylaminomethyl-indan-5-yl)-benzenesulfonamide]
- Ki [1]: 1.32 nM
- Ki(D2)*/Ki(D3)* [1]: 45
- Ki [2]: 58.6 nM

SMILES: CCCN1CC2CCc3cc(NS(=O)(=O)c4ccc(C(C)C)cc4)ccc3C2C1.Cl (stereo not shown) [Example 14, 4-Isopropyl-N-(2-propyl-2,3,3a,4,5,9b-hexahydro-1H-benzo[e]isoindol-7-yl)-benzenesulfonamide, hydrochloride]
- Ki [1]: 0.5 nM
- Ki(D2)*/Ki(D3)* [1]: 28

SMILES: CCCN1CC2CCc3cc(NS(=O)(=O)c4ccc(OC(F)(F)F)cc4)ccc3C2C1.Cl (stereo not shown) [Example 16, N-(2-Propyl-2,3,3a,4,5,9b-hexahydro-1H-benzo[e]isoindol-7-yl)-4-trifluoromethoxy-benzenesulfonamide hydrochloride]
- Ki [1]: 3.6 nM
- Ki(D2)*/Ki(D3)* [1]: 66

SMILES: CCCNCC1Cc2ccc(NS(=O)(=O)c3ccc(C(C)C)cc3)cc2C1 (stereo not shown) [Example 7, 4-Isopropyl-N-(2-propylaminomethyl-indan-5-yl)-benzenesulfonamide]
- Ki [1]: 7.4 nM
- Ki(D2)*/Ki(D3)* [1]: 54
- Ki [2]: 398 nM

SMILES: CCCNCC1Cc2cc(NS(=O)(=O)c3ccc(C(C)C)cc3)ccc2N1 (stereo not shown) [Example 2, 4-Isopropyl-N-(2-propylaminomethyl-2,3-dihydro-1H-indol-5-yl)-benzenesulfonamide×HCl]
- Ki [1]: 9.4 nM
- Ki(D2)*/Ki(D3)* [1]: 55
- Ki [2]: 517 nM

SMILES: CCCNCC1Cc2cc(NS(=O)(=O)c3ccc(OC(F)(F)F)cc3)ccc2N1 (stereo not shown) [Example 4, N-(2-Propylaminomethyl-2,3-dihydro-1H-indol-5-yl)-4-trifluoromethoxy-benzenesulfonamide×HCl]
- Ki [1]: 63.4 nM
- Ki(D2)*/Ki(D3)* [1]: 120
- Ki [2]: 7640 nM

SMILES: CCCN1CC2CCc3c(cc(Cl)c(NS(=O)(=O)c4ccc(C(C)C)cc4)c3Cl)C2C1.Cl (stereo not shown) [Example 13, N-(6,8-Dichloro-2-propyl-2,3,3a,4,5,9b-hexahydro-1H-benzo[e]isoindol-7-yl)-4-isopropyl-benzenesulfonamide, hydrochloride]
- Ki [1]: 10.1 nM
- Ki(D2)*/Ki(D3)* [1]: 5

SMILES: CCCN1CC2CCc3cc(NS(=O)(=O)c4ccc(OC(F)F)cc4)ccc3C2C1.Cl (stereo not shown) [Example 17, 4-Difluoromethoxy-N-(2-propyl-2,3,3a,4,5,9b-hexahydro-1H-benzo[e]isoindol-7-yl)-benzenesulfonamide, hydrochloride]
- Ki [1]: 3.3 nM
- Ki(D2)*/Ki(D3)* [1]: 19

SMILES: CCCNCc1cc2cc(NS(=O)(=O)c3ccc(OC(F)(F)F)cc3)ccc2[nH]1 [Example 3, N-(2-Propylaminomethyl-1H-indol-5-yl)-4-trifluoromethoxy-benzenesulfonamide×½ fumaric acid]
- Ki [1]: 55 nM
- Ki(D2)*/Ki(D3)* [1]: 23
- Ki [2]: 55 nM
